Where two headings read alike, the source gives them in different places. Numbered stars: 1 amine (or outer) side, 2 acyl side, 3 side chain; on linkers, the order of the positions; unused ones are H or OH. Bridge positions count the residues as written; N and C are the ends. Square brackets hold non-standard residues; d marks the D form. Peptide text beside a SMILES is read from it. Adda = CO[C@@H](Cc1ccccc1)[C@@H](C)/C=C(C)/C=C/[C@H](N[*:1])[C@H](C)C(=O)[*:2]; dAsp(3S-Me) = C[C@H](C(=O)[*:3])[C@@H](N[*:1])C(=O)[*:2]; d(γGlu) = O=C(O)[C@@H](CCC(=O)[*:2])N[*:1]; NMeDha = C=C(NC)C(=O)O
What was measured:
OATP1B1 = experiment: in vitro; details: human
[1] = system: OATP1B3-expressing HeLa cells; details: for IC50: human
HeLa Control cells [2] = details: 24 h
[3] = system: OATP1B1- and OATP1B3-expressing HeLa or RKO cell lines
PP2A = details: cited from earlier work
HeLa Control cells [4] = details: cited from earlier work
[5] = system: OATP1B1-expressing HeLa cells; details: read-out: IC50 HeLa B1; cited from earlier work
[6] = system: OATP1B3-expressing HeLa cells; details: cited from earlier work

SMILES	IC50 (OATP1B1) [nM]	Ratio IC50 B1/B3 HeLa [1]	IC50 [1] [nM]	IC50 (HeLa Control cells [2]) [nM]	IC50 values (potency grouping) [3]	transporter selectivity (in words) [3]	PP2A inhibition compared with 1 (PP2A)	IC50 (HeLa Control cells [4]) [nM]	IC50 [5] [nM]	toxicity in the present assay compared with 1 (times lower) [3]	IC50 ([3]; read-out: IC50 values (potency grouping)) [nM]	Ratio IC50 B1/B3 HeLa [6]	IC50 ([6]; read-out: IC50 HeLa B3) [nM]
C/C=C1/NC(=O)CC[C@H](C(=O)O)NC(=O)[C@@H](C)[C@H](/C=C/C(C)=C/[C@H](C)[C@H](Cc2ccccc2)OC)NC(=O)[C@H](Cc2ccc(O)cc2)NC(=O)C[C@H](C(=O)O)NC(=O)[C@H](CCc2ccc(O)cc2)NC(=O)[C@@H](C)NC1=O [compound 18, [D-Asp^3,(E)-Dhb^7]MC-HtyY]	0.515	6.6	0.078	> 10	sub-nanomolar	most OATP1B3 selective							
C=C1C(=O)N[C@H](C)C(=O)N[C@@H](CCCNC(=N)N)C(=O)N[C@@H](C(=O)O)[C@H](C)C(=O)N[C@@H](CCCNC(=N)N)C(=O)N[C@@H](/C=C/C(C)=C/[C@H](C)[C@H](Cc2ccccc2)OC)[C@H](C)C(=O)N[C@@H](C(=O)O)CCC(=O)N1C [compound 10, RR] (R[Adda][d(γGlu)][NMeDha][dA]R[dAsp(3S-Me)]-OH; lactam N-7)						most OATP1B3 selective	about twenty times weaker	> 10000	3800	about 500 times	> 100	6.6	580
C/C=C1/NC(=O)CC[C@H](C(=O)O)NC(=O)[C@@H](C)[C@H](/C=C/C(C)=C/[C@H](C)[C@H](Cc2ccccc2)OC)NC(=O)[C@H](CCc2ccc(O)cc2)NC(=O)C[C@H](C(=O)O)NC(=O)[C@H](CCc2ccc(O)cc2)NC(=O)[C@@H](C)NC1=O [compound 19, [D-Asp^3,(E)-Dhb^7]MC-HtyHty]	0.39	2.2	0.18	> 10	sub-nanomolar								
